≈ marks a conversion by molar mass, not a printed value.
Columns and labels:
N. gonorrhoeae MS11 = assay: Liquid broth MIC in Fastidious broth; conditions: Neisseria gonorrhoeae, MS11, read-out: Minimum Inhibitory Concentration (MIC), N. gonorrhoeae MS11
P. aeruginosa ATCC 27853 = assay: microbe, parasite or virus in culture; format: cell-based; conditions: Pseudomonas aeruginosa, ATCC27853, read-out: MIC P. aeruginosa ATCC 27853
E. coli D22 = assay: microbe, parasite or virus in culture; format: cell-based; conditions: Escherichia coli, D22, read-out: MIC E. coli D22
N. gonorrhoeae WHO G = assay: Liquid broth MIC in Fastidious broth; conditions: Neisseria gonorrhoeae, read-out: Minimum Inhibitory Concentration (MIC), N. gonorrhoeae WHO G
E. coli ATCC 25922 = assay: microbe, parasite or virus in culture; format: cell-based; conditions: Escherichia coli, ATCC25922, read-out: MIC E. coli 25922
N. gonorrhoeae WHO K = assay: Liquid broth MIC in Fastidious broth; conditions: Neisseria gonorrhoeae, read-out: Minimum Inhibitory Concentration (MIC), N. gonorrhoeae WHO K
K. pneumoniae UMM = assay: microbe, parasite or virus in culture; format: cell-based; conditions: Klebsiella pneumoniae, read-out: MIC K. pneumoniae UMM
N. gonorrhoeae CDC-0197 = assay: Liquid broth MIC in Fastidious broth; conditions: Neisseria gonorrhoeae, CDC0197, read-out: Minimum Inhibitory Concentration (MIC), N. gonorrhoeae CDC-0197

Structure (SMILES)	MIC (N. gonorrhoeae MS11)	MIC (P. aeruginosa ATCC 27853)	MIC (E. coli D22)	MIC (N. gonorrhoeae WHO G)	MIC (E. coli ATCC 25922)	MIC (N. gonorrhoeae WHO K)	MIC (K. pneumoniae UMM)	MIC (N. gonorrhoeae CDC-0197)
O=C1CC[C@H](C(=O)NC(C(=O)N[C@H]2Cc3cccc(C(=O)O)c3OB2O)c2ccc(P(=O)(O)O)cc2)N1 (stereo partly drawn) [Example 53, (3R)-2-hydroxy-3-(2-((R)-5-oxopyrrolidine-2-carboxamido)-2-(4-phosphonophenyl)acetamido)-3,4-dihydro-2H-benzo[e][1,2]oxaborinine-8-carboxylic acid]	1 to 2 µg/mL (≈ 1.88 to 3.76 µM)	> 128 µg/mL	32 to 64 µg/mL (≈ 60.2 to 120 µM)	1 to 2 µg/mL (≈ 1.88 to 3.76 µM)	> 128 µg/mL	16 to 32 µg/mL (≈ 30.1 to 60.2 µM)	> 128 µg/mL	4 to 8 µg/mL (≈ 7.53 to 15.1 µM)
O=C(O)c1cccc2c1OB(O)[C@@H](NC(=O)C(NC(=O)N1CCCNC1=O)c1ccc(P(=O)(O)O)cc1)C2 (stereo partly drawn) [Example 56, (3R)-2-hydroxy-3-(2-(2-oxohexahydropyrimidine-1-carboxamido)-2-(4-phosphonophenyl)acetamido)-3,4-dihydro-2H-benzo[e][1,2]oxaborinine-8-carboxylic acid]	1 to 2 µg/mL (≈ 1.83 to 3.66 µM)	> 128 µg/mL	8 to 16 µg/mL (≈ 14.6 to 29.3 µM)	1 to 2 µg/mL (≈ 1.83 to 3.66 µM)	> 128 µg/mL	16 to 32 µg/mL (≈ 29.3 to 58.6 µM)	> 128 µg/mL	4 to 8 µg/mL (≈ 7.32 to 14.6 µM)
NS(=O)(=O)NC(C(=O)N[C@H]1Cc2cccc(C(=O)O)c2OB1O)c1ccc(P(=O)(O)O)cc1 (stereo partly drawn) [Example 58, (3R)-2-hydroxy-3-(2-(4-phosphonophenyl)-2-(sulfamoylamino)acetamido)-3,4-dihydro-2H-benzo[e][1,2]oxaborinine-8-carboxylic acid]	16 to 32 µg/mL (≈ 32.1 to 64.1 µM)	> 128 µg/mL	> 128 µg/mL	16 to 32 µg/mL (≈ 32.1 to 64.1 µM)	> 128 µg/mL	16 to 32 µg/mL (≈ 32.1 to 64.1 µM)	> 128 µg/mL	16 to 32 µg/mL (≈ 32.1 to 64.1 µM)
CS(=O)(=O)NC(C(=O)N[C@H]1Cc2cccc(C(=O)O)c2OB1O)c1ccc(P(=O)(O)O)cc1 (stereo partly drawn) [Example 59, (3R)-2-hydroxy-3-(2-(methylsulfonamido)-2-(4-phosphonophenyl)acetamido)-3,4-dihydro-2H-benzo[e][1,2]oxaborinine-8-carboxylic acid]	16 to 32 µg/mL (≈ 32.1 to 64.2 µM)	> 128 µg/mL	> 128 µg/mL	16 to 32 µg/mL (≈ 32.1 to 64.2 µM)	> 128 µg/mL	16 to 32 µg/mL (≈ 32.1 to 64.2 µM)	> 128 µg/mL	16 to 32 µg/mL (≈ 32.1 to 64.2 µM)
CC(C)S(=O)(=O)NC(C(=O)N[C@H]1Cc2cccc(C(=O)O)c2OB1O)c1ccc(P(=O)(O)O)cc1 (stereo partly drawn) [Example 60, (3R)-2-hydroxy-3-(2-((1-methylethyl)sulfonamido)-2-(4-phosphonophenyl)acetamido)-3,4-dihydro-2H-benzo[e][1,2]oxaborinine-8-carboxylic acid]	16 to 32 µg/mL (≈ 30.4 to 60.8 µM)	> 128 µg/mL	> 128 µg/mL	16 to 32 µg/mL (≈ 30.4 to 60.8 µM)	> 128 µg/mL	16 to 32 µg/mL (≈ 30.4 to 60.8 µM)	> 128 µg/mL	16 to 32 µg/mL (≈ 30.4 to 60.8 µM)
O=C(O)c1cccc2c1OB(O)[C@@H](NC(=O)C(NS(=O)(=O)C1CC1)c1ccc(P(=O)(O)O)cc1)C2 (stereo partly drawn) [Example 61, (3R)-3-(2-(cyclopropanesulfonamido)-2-(4-phosphonophenyl)acetamido)-2-hydroxy-3,4-dihydro-2H-benzo[e][1,2]oxaborinine-8-carboxylic acid]	16 to 32 µg/mL (≈ 30.5 to 61 µM)	> 128 µg/mL	> 128 µg/mL	16 to 32 µg/mL (≈ 30.5 to 61 µM)	> 128 µg/mL	16 to 32 µg/mL (≈ 30.5 to 61 µM)	> 128 µg/mL	16 to 32 µg/mL (≈ 30.5 to 61 µM)
O=C1CC[C@@H](C(=O)NC(C(=O)N[C@H]2Cc3cccc(C(=O)O)c3OB2O)c2ccc(P(=O)(O)O)cc2)N1 (stereo partly drawn) [Example 64, (3R)-2-hydroxy-3-(2-((S)-5-oxopyrrolidine-2-carboxamido)-2-(4-phosphonophenyl)acetamido)-3,4-dihydro-2H-benzo[e][1,2]oxaborinine-8-carboxylic acid]	4 to 8 µg/mL (≈ 7.53 to 15.1 µM)	> 128 µg/mL	32 to 64 µg/mL (≈ 60.2 to 120 µM)	4 to 8 µg/mL (≈ 7.53 to 15.1 µM)	> 128 µg/mL	16 to 32 µg/mL (≈ 30.1 to 60.2 µM)	> 128 µg/mL	4 to 8 µg/mL (≈ 7.53 to 15.1 µM)
CC(=O)N1CCC[C@H]1C(=O)NC(C(=O)N[C@H]1Cc2cccc(C(=O)O)c2OB1O)c1ccc(P(=O)(O)O)cc1 (stereo partly drawn) [Example 65, (3R)-3-(2-((S)-1-acetylpyrrolidine-2-carboxamido)-2-(4-phosphonophenyl)acetamido)-2-hydroxy-3,4-dihydro-2H-benzo[e][1,2]oxaborinine-8-carboxylic acid]	16 to 32 µg/mL (≈ 28.6 to 57.2 µM)	> 128 µg/mL	> 128 µg/mL	16 to 32 µg/mL (≈ 28.6 to 57.2 µM)	> 128 µg/mL	16 to 32 µg/mL (≈ 28.6 to 57.2 µM)	> 128 µg/mL	16 to 32 µg/mL (≈ 28.6 to 57.2 µM)
CN1CCC[C@H]1C(=O)NC(C(=O)N[C@H]1Cc2cccc(C(=O)O)c2OB1O)c1ccc(P(=O)(O)O)cc1 (stereo partly drawn) [Example 66]	16 to 32 µg/mL (≈ 30.1 to 60.2 µM)	> 128 µg/mL	32 to 64 µg/mL (≈ 60.2 to 120 µM)	4 to 8 µg/mL (≈ 7.53 to 15.1 µM)	> 128 µg/mL	16 to 32 µg/mL (≈ 30.1 to 60.2 µM)	> 128 µg/mL	16 to 32 µg/mL (≈ 30.1 to 60.2 µM)
